Assay in all cases: microbe, parasite or virus in culture
What all share (type): cell-based

For assay [1], the system named is HCV 3a RLuc cells (NS5A chimeric genotype 1b Con1 replicon with consensus genotype 3a NS5A gene). The procedure, abridged:
(§1)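 Replicon cells stably carrying the listed RLuc-encoding dicistronic replicons were seeded and treated with DMSO serial dilutions of compound (10 mM stocks) diluted into culture medium. After 72 h, cells were lysed and Renilla luciferase activity measured. EC50 was derived by non-linear regression.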

The subject of assay [2] is HCV 2a JFH-1 Rluc cells (dicistronic genotype 2a JFH-1 replicon, RLuc reporter). Conditions: genotype 2a JFH-1 replicon, RLuc reporter, read-out: 2a JFH. An outline of the steps:
as §1

Assay [3] deals with HCV 1a RLuc cells (dicistronic genotype 1a H77 replicon, RLuc reporter). Conditions: genotype 1a H77 replicon, RLuc reporter, read-out: 1a. The procedure, abridged:
as §1

Assay [4] has as its system HCV 4a Rluc cells (NS5A chimeric genotype 1b Con1 replicon with genotype 4a NS5A gene). Conditions: Hepatitis C virus, read-out: 4a. The procedure, abridged: as §1
The subject of assay [5] is HCV 1b RLuc cells (dicistronic genotype 1b Con1 replicon, RLuc reporter). An outline of the steps:
as §1

Setting [6] is: Hepatitis C virus, read-out: 3a, genotype 3a NS5A chimeric 1b Con1 replicon.
Setting [7] is: Hepatitis C virus, read-out: 1b (nM).

Molecules are shown by their SMILES. Read-outs that look alike come from different tables or passages of the source.

As for `COC(=O)N[C@H](C(=O)N1CCC[C@H]1c1ncc(-c2ccc(-c3ccc(-c4cnc([C@@H]5Cc6ccccc6N5C(=O)[C@@H](NC(=O)OC)C(C)C)[nH]4)cc3)cc2)[nH]1)C(C)C` [Example 266], the EC50 in assay [1] (setting [6]) is 1 to 4.99 nM; in assay [2] (Hepatitis C virus) it was 1 to 44 nM; in assay [3] (Hepatitis C virus), 0.001 to 0.999 nM; in assay [4] it was 0.001 to 0.99 nM; in assay [5] (setting [7]), 0.009 nM.

For the compound `COC(=O)N[C@H](C(=O)N1c2ccccc2C[C@H]1c1ncc(-c2ccc(-c3ccc(-c4cnc([C@@H]5Cc6ccccc6N5C(=O)[C@@H](NC(=O)OC)C(C)C)[nH]4)cc3)cc2)[nH]1)C(C)C` [Example 267], the EC50 in assay [1] (setting [6]) was above 5 nM; in assay [2] (Hepatitis C virus), above 44 nM; in assay [3] (Hepatitis C virus), 1 to 44 nM; in assay [4], 0.001 to 0.99 nM; in assay [5] (setting [7]) it was 0.045 nM.

Regarding `COC(=O)N[C@H](C(=O)N1CCC[C@H]1c1nc2ccc3cc(C#Cc4ccc(-c5cnc([C@@H]6CCCN6C(=O)[C@H](NC(=O)OC)c6ccccc6)[nH]5)cc4)ccc3c2[nH]1)[C@@H](C)OC` [Example 268], the EC50 was 0.001 to 0.99 nM in assay [1] (setting [6]); 0.001 to 0.999 nM in assay [2] (Hepatitis C virus); 0.001 to 0.999 nM in assay [3] (Hepatitis C virus); 0.001 to 0.99 nM in assay [4]; 0.007 nM in assay [5] (setting [7]).

For the compound `COC(=O)N[C@@H](C(=O)N1CCC[C@H]1c1ncc(-c2ccc3cc(-c4ccc5c(c4)CCc4nc([C@@H]6CCCN6C(=O)[C@@H](NC(=O)OC(C)(C)C)C6CCOCC6)[nH]c4-5)ccc3c2)[nH]1)c1ccccc1` [Example 269], the EC50 in assay [1] (setting [6]) was above 5 nM; in assay [2] (Hepatitis C virus), 1 to 44 nM; in assay [3] (Hepatitis C virus), above 44 nM; in assay [4], 0.001 to 0.99 nM; in assay [5] (setting [7]), 0.076 nM.

As for `COC(=O)N[C@H](C(=O)N1CCC[C@H]1c1nc2c([nH]1)-c1ccc(-c3ccc4cc(-c5cnc([C@@H]6CCCN6C(=O)[C@H](NC(=O)OC)c6ccccc6)[nH]5)ccc4c3)cc1CC2)C1CCN(C(=O)OC(C)(C)C)CC1` [Example 270], the EC50 in assay [1] (setting [6]) is 0.001 to 0.99 nM; in assay [2] (Hepatitis C virus), 0.001 to 0.999 nM; in assay [3] (Hepatitis C virus), 0.001 to 0.999 nM; in assay [4] it was 0.001 to 0.99 nM; in assay [5] (setting [7]), 0.032 nM.

`COC(=O)N[C@H](C(=O)N1CCC[C@H]1c1nc2ccc3cc(-c4ccc5cc(-c6cnc([C@@H]7CCCN7C(=O)[C@H](NC(=O)OC)c7ccccc7)[nH]6)ccc5c4)ccc3c2[nH]1)[C@@H](C)OC` [Example 271]: the EC50 in assay [1] (setting [6]) was 0.001 to 0.99 nM; in assay [2] (Hepatitis C virus) it was 0.001 to 0.999 nM; in assay [3] (Hepatitis C virus), 0.001 to 0.999 nM; in assay [4], 0.001 to 0.99 nM; in assay [5] (setting [7]) it was 0.008 nM.

Regarding `COC(=O)N[C@H](C(=O)N1CCC[C@H]1c1nc2c([nH]1)-c1ccc(-c3ccc4cc(-c5cnc([C@@H]6CCCN6C(=O)[C@H](NC(=O)CC6CCOCC6)c6ccccc6)[nH]5)ccc4c3)cc1CC2)C(C)C` [Example 273], the EC50 is 0.001 to 0.99 nM in assay [1] (setting [6]); 0.001 to 0.999 nM in assay [2] (Hepatitis C virus); 0.001 to 0.999 nM in assay [3] (Hepatitis C virus); 0.001 to 0.99 nM in assay [4]; 0.042 nM in assay [5] (setting [7]).

In the case of `COC(=O)N[C@H](C(=O)N1CCC[C@H]1c1ncc(-c2ccc3c(c2)cc(C#N)c2cc(-c4cnc([C@@H]5CCCN5C(=O)[C@@H](NC(=O)OC)C(C)C)[nH]4)ccc23)[nH]1)C(C)C` [Example 274], the EC50 is 1 to 4.99 nM in assay [1] (setting [6]); 1 to 44 nM in assay [2] (Hepatitis C virus); 1 to 44 nM in assay [3] (Hepatitis C virus); 0.001 to 0.99 nM in assay [4]; 0.011 nM in assay [5] (setting [7]).

As to `COC(=O)N[C@H](C(=O)N1CCC[C@H]1c1ncc(-c2ccc3cc(-c4ccc(-c5cnc([C@@H]6CCCN6C(=O)[C@@H](NC(=O)OCc6ccccc6)C6CCSCC6)[nH]5)cc4)ccc3c2)[nH]1)C(C)C` [Example 275], the EC50 in assay [1] (setting [6]) is above 5 nM; in assay [2] (Hepatitis C virus), above 44 nM; in assay [3], 1 to 44 nM; in assay [4], above 5 nM; in assay [5] (setting [7]) it was 2.15 nM.

In the case of `COC(=O)N[C@H](C(=O)N1CCC[C@H]1c1ncc(-c2ccc3cc(-c4ccc(-c5cnc([C@@H]6CCCN6C(=O)[C@@H](N)C6CCSCC6)[nH]5)cc4)ccc3c2)[nH]1)C(C)C` [Example 277], the EC50 in assay [1] (setting [6]) was above 5 nM; in assay [2] (Hepatitis C virus), above 44 nM; in assay [3] (Hepatitis C virus), 1 to 44 nM; in assay [4] it was 1 to 4.99 nM; in assay [5] (setting [7]), 1.06 nM.

`COC(=O)N[C@H](C(=O)N1CCC[C@H]1c1ncc(-c2ccc3cc(-c4ccc(-c5cnc([C@@H]6CCCN6C(=O)[C@@H](NC(=O)OC)C6CCSCC6)[nH]5)cc4)ccc3c2)[nH]1)C(C)C` [Example 278]: the EC50 in assay [1] (setting [6]) was 1 to 4.99 nM; in assay [2] (Hepatitis C virus), 0.001 to 0.999 nM; in assay [3] (Hepatitis C virus), 0.001 to 0.999 nM; in assay [4], 0.001 to 0.99 nM; in assay [5] (setting [7]), 0.013 nM.

In the case of `COC(=O)N[C@H](C(=O)N1CCC[C@H]1c1nc2c([nH]1)-c1ccc(-c3ccc4cc(-c5cnc([C@@H]6CCCN6C(=O)[C@H](NC(=O)OC)c6ccccc6)[nH]5)ccc4c3)cc1CC2)C1CCOCC1` [Example 279], the EC50 was 0.001 to 0.99 nM in assay [1] (read-out: 3a, genotype 3a NS5A chimeric 1b Con1 replicon); 1 to 44 nM in assay [2]; 1 to 44 nM in assay [3]; 0.001 to 0.99 nM in assay [4]; 0.031 nM in assay [5] (read-out: 1b).

Regarding `COC(=O)N[C@@H](C(=O)N1CCC[C@H]1c1ncc(-c2ccc3cc(-c4ccc5c(c4)CCc4nc([C@@H]6CCCN6C(=O)[C@@H](NC(=O)C6CC6)C6CCOCC6)[nH]c4-5)ccc3c2)[nH]1)c1ccccc1` [Example 280], the EC50 in assay [1] (setting [6]) is 0.001 to 0.99 nM; in assay [2] (Hepatitis C virus), 1 to 44 nM; in assay [3] (Hepatitis C virus), 1 to 44 nM; in assay [4], 0.001 to 0.99 nM; in assay [5] (setting [7]), 0.047 nM.

For the compound `COC(=O)N[C@@H](C(=O)N1CCC[C@H]1c1ncc(-c2ccc3cc(-c4ccc5c(c4)CCc4nc([C@@H]6CCCN6C(=O)[C@@H](NC(O)OC)C6CCN(S(C)(=O)=O)CC6)[nH]c4-5)ccc3c2)[nH]1)c1ccccc1` (stereo partly drawn) [Example 281], the EC50 in assay [1] (setting [6]) is 0.001 to 0.99 nM; in assay [2] (Hepatitis C virus), 0.001 to 0.999 nM; in assay [3] (Hepatitis C virus), 0.001 to 0.999 nM; in assay [4], 0.001 to 0.99 nM; in assay [5] (setting [7]), 0.063 nM.

Take `COC(=O)N[C@H](C(=O)N1[C@@H]2CC[C@@H](C2)[C@H]1c1nc2ccc3cc(C#Cc4ccc(-c5cnc([C@@H]6CCCN6C(=O)[C@H](NC(=O)OC)c6ccccc6)[nH]5)cc4)ccc3c2[nH]1)C1CCOCC1` [Example 283]: the EC50 is 0.001 to 0.99 nM in assay [1] (setting [6]); 0.001 to 0.999 nM in assay [2] (Hepatitis C virus); 0.001 to 0.999 nM in assay [3] (Hepatitis C virus); 0.001 to 0.99 nM in assay [4]; 0.007 nM in assay [5] (setting [7]).

Take `COC(=O)N[C@H](C(=O)N1CCC[C@H]1c1nc2c([nH]1)-c1ccc(-c3ccc4cc(-c5cnc([C@@H]6CCCN6C(=O)[C@H](NC(=O)OC)c6ccccc6)[nH]5)ccc4c3)cc1CC2)C1CCNCC1` [Example 284]: the EC50 in assay [1] (setting [6]) is above 5 nM; in assay [2] (Hepatitis C virus), 1 to 44 nM; in assay [3] (Hepatitis C virus), 1 to 44 nM; in assay [4] it was 0.001 to 0.99 nM; in assay [5] (setting [7]) it was 4.62 nM.

With `COC(=O)N[C@H](C(=O)N1CCC[C@H]1c1nc2ccc3cc(-c4csc5cc(-c6cnc([C@@H]7CCCN7C(=O)[C@H](NC(=O)OC)c7ccccc7)[nH]6)ccc45)ccc3c2[nH]1)C(C)C` [Example 285], the EC50 in assay [1] (setting [6]) is 0.001 to 0.99 nM; in assay [2] (Hepatitis C virus), 0.001 to 0.999 nM; in assay [3] (Hepatitis C virus) it was 0.001 to 0.999 nM; in assay [4], 0.001 to 0.99 nM; in assay [5] (setting [7]), 0.006 nM.

Take `CCC(CC)[C@H](NC(=O)OC)C(=O)N1CCC[C@H]1c1ncc(-c2ccc3cc(-c4ccc(-c5cnc([C@@H]6CCCN6C(=O)[C@H](NC(=O)OC)c6ccccc6)[nH]5)cc4)ccc3c2)[nH]1` [Example 286]: the EC50 is 0.001 to 0.99 nM in assay [1] (setting [6]); 0.001 to 0.999 nM in assay [2] (Hepatitis C virus); 0.001 to 0.999 nM in assay [3] (Hepatitis C virus); 0.001 to 0.99 nM in assay [4]; 0.003 nM in assay [5] (setting [7]).

Take `COC(=O)N[C@H](C(=O)N1CCC[C@H]1c1nc2ccc3cc(-c4ccc5cc(-c6cnc([C@@H]7CCCN7C(=O)[C@H](NC(=O)C(C)(C)O)c7ccccc7)[nH]6)ccc5c4)ccc3c2[nH]1)C(C)C` [Example 287]: the EC50 in assay [1] (setting [6]) was 0.001 to 0.99 nM; in assay [2] (Hepatitis C virus), 0.001 to 0.999 nM; in assay [3] (Hepatitis C virus), 0.001 to 0.999 nM; in assay [4], 0.001 to 0.99 nM; in assay [5] (setting [7]) it was 0.006 nM.

As to `COC(=O)N[C@H](C(=O)N1CCC[C@H]1c1nc2ccc3cc(-c4ccc5cc(-c6cnc([C@@H]7CCCN7C(=O)[C@H](NC(=O)N7CCOCC7)c7ccccc7)[nH]6)ccc5c4)ccc3c2[nH]1)C(C)C` [Example 288], the EC50 in assay [1] (setting [6]) is 0.001 to 0.99 nM; in assay [2] (Hepatitis C virus), 0.001 to 0.999 nM; in assay [3] (Hepatitis C virus), 0.001 to 0.999 nM; in assay [4], 0.001 to 0.99 nM; in assay [5] (setting [7]) it was 0.009 nM.

As to `COC(=O)N[C@H](C(=O)N1CCC[C@H]1c1nc2ccc3cc(-c4ccc5cc(-c6cnc([C@@H]7CCCN7C(=O)[C@H](NC(=O)OC7COC7)c7ccccc7)[nH]6)ccc5c4)ccc3c2[nH]1)C(C)C` [Example 289], the EC50 is 0.001 to 0.99 nM in assay [1] (setting [6]); 0.001 to 0.999 nM in assay [2] (Hepatitis C virus); 0.001 to 0.999 nM in assay [3] (Hepatitis C virus); 0.001 to 0.99 nM in assay [4]; 0.01 nM in assay [5] (setting [7]).

Source of the values: patent publication US10344019B2 (priority 2010, dated 2019).
